Results taken from publication PMC6405930, “Conservation of the Amyloid Interactome Across Diverse Fibrillar Structures” (Scientific Reports, 2019).

Tests used:
Ab1 fibrils [1] = tested on: T1, Ab1 fibrils; assay: Fibril incubation with plasma, quantitative MS/MS of bound proteins; type: binding, human; details: 50:1 w/w plasma protein:fibril
T1 construct: Synthetic amyloid β peptide 1–40 was purchased from Caslo Aps (Lyngby, Denmark); purchased Caslo Aps (Lyngby, Denmark); host or cells: synthetic peptide
Method: (§1) Plasma and CSF solutions were centrifuged (40,000 g, 20 min) to remove any aggregates. The protein concentration was determined using 280 nm absorbance assuming 1 Abs = 1 mg/mL. Samples with fibril material (20 μg), plasma (500 μg) or CSF (40 μg) proteins were prepared in 200 μL PBS buffer with 5 mM EDTA. Control samples (without fibril material) were prepared similarly. All samples were incubated at room temperature for one hour under gentle agitation. Fibrils and fibril-bound proteins were pelleted by centrifugation at 17,000 g for 30 minutes. The supernatant (175 μL) was removed and the aggregate was re-suspended in 175 μL PBS and pelleted again before further preparation for gel analysis and spin-filter assisted digest for quantitative MS/MS.
(§2) The fibril-protein pellets were transferred to spin-filters (0.22 μm), washed twice in PBS (100 μL) and once in 1 M NaCl (100 μL). The fibrils and fibril-bound proteins were dissolved by one-hour incubation in 100 μL 6 M guanidinium chloride followed by elution from the spin-filter. The eluted proteins were loaded onto a 3 kDa MWCO filter unit for filter-assisted unfolding, reduction, alkylation, and trypsin digestion. In brief, samples were washed twice in 8 M urea, once in 8 M urea with 50 mM DTT, once in 8 M urea with 50 mM iodoaceteamide, and twice in 8 M Urea. The filter units were dried by centrifugation (14,000 g in 30 minutes) after every addition. Trypsin digestion was carried out with 0.25 μg sequencing grade trypsin from Sigma Aldrich in 50 mM ammonium bicarbonate overnight at 37 °C. The tryptic peptides were collected by centrifugation, acidified with TFA (0.1%) and micro-purified using POROS R2 column material (Applied Biosystems) packed in P200 pipette tips (Sarstedt).
(§3) LC-MS/MS analyses were performed on an EASY-nLC II system (Thermo Fisher Scientific) connected to a TripleTOF 5600+ mass spectrometer (Sciex) equipped with a NanoSpray III source (Sciex) and operated under Analyst TF 1.6.0 control.
(§4) The micro-purified tryptic peptides were dissolved in 0.1% formic acid, injected and trapped on an in-house packed trap column (2 cm × 100 μm I.D) with RP ReproSil-Pur C18-AQ 3 μm resin (Dr. Maisch GmbH). Peptides were eluted from the trap column and separated on a 15 cm analytical column (75 μm i.d.) packed in-house in a pulled emitter with RP ReproSil-Pur C18-AQ 3 μm resin (Dr. Maisch GmbH). Elution from the analytical column was performed with a linear gradient from 5% to 35% phase B (90% acetonitrile with 0.1% formic acid) over 20 min for protein identification and 50 min for quantitative analysis, respectively.
(§5) All samples were analysed three times, yielding nine MS/MS experiments for each fibril for both plasma and CSF. For the area-based extracted ion chromatogram (XIC) quantification, the acquisition method was set up as an information-dependent acquisition (IDA) experiment collecting up to 25 MS/MS spectra in each 1.6 sec cycle using an exclusion window of 6 sec.
(§6) XIC quantification was based on the average ion intensity of the three most abundant peptides for each protein. Only proteins quantified in at least four out of nine MS/MS experiments per fibril were included in the quantification. The total ion scores were visualized after grouping the proteins according to function (Figure S11).
(§7) For each MS/MS experiment, the ion intensities of the individual proteins were normalized to the total ion intensity of that MS/MS experiment to achieve a relative protein composition. The contribution of each protein was averaged over all nine MS/MS experiments (Tables 1 and 2).

Ab2 fibrils [2] = tested on: T2, Ab2 fibrils; assay: as above; type: binding, human; details: 50:1 w/w plasma protein:fibril
T2 construct: Two structurally distinct fibrils of the Aβ(1–40) peptide associated with AD
Method: as §1, with “Samples with fibril material (20 μg), plasma (500 μg) or CSF (40 μg) proteins were prepared in 200 μL PBS buffer with 5 mM EDTA.” left out
as §2, §3, §4, §5, §6, §7

glucagon fibrils [3] = biological target: T3, glucagon fibrils (Homo sapiens, UniProt P01275); assay: as above; type: binding; details: 50:1 w/w plasma protein:fibril
T3 construct: fibrils of the peptide hormone glucagon
Method: as §1, with “Samples with fibril material (20 μg), plasma (500 μg) or CSF (40 μg) proteins were prepared in 200 μL PBS buffer with 5 mM EDTA.” left out
as §2, §3, §4, §5, §6, §7

C-36 fibrils [4] = biological target: T4, C-36 fibrils (Homo sapiens, UniProt P01009); assay: as above; type: binding; details: 50:1 w/w plasma protein:fibril
T4 construct: the 36 residue C-terminal fragment of α1-antitrypsin (C-36)
Method: as §1, with “Samples with fibril material (20 μg), plasma (500 μg) or CSF (40 μg) proteins were prepared in 200 μL PBS buffer with 5 mM EDTA.” left out
as §2, §3, §4, §5, §6, §7

αSN fibrils [5] = biological target: T5, αSN fibrils (Homo sapiens, UniProt P37840); assay: as above; type: binding; parameters: key to Identification status of plasma protein bound: αSN: *: Identified, but not quantified; —: Not identified in any of the samples; details: for Identification status of plasma protein bound: αSN: symbol cells
Method: as §1, with “Samples with fibril material (20 μg), plasma (500 μg) or CSF (40 μg) proteins were prepared in 200 μL PBS buffer with 5 mM EDTA.” left out
as §2, §3, §4, §5, §6, §7

FAS4-AD aggregates [6] = tested on: T6, FAS4-AD aggregates; assay: as above; type: binding, human; parameters: key to Identification status of plasma protein bound: FAS4-AD: *: Identified, but not quantified; —: Not identified in any of the samples; details: for Identification status of plasma protein bound: FAS4-AD: symbol cells
T6 construct: aggregates of a mutated version of the FAS1-4 domain of TGFBIp
Method: as §1, with “Samples with fibril material (20 μg), plasma (500 μg) or CSF (40 μg) proteins were prepared in 200 μL PBS buffer with 5 mM EDTA.” left out
as §2, §3, §4, §5, §6, §7

Ab1 fibrils [7] = tested on: T1, Ab1 fibrils; assay: Fibril incubation with CSF, quantitative MS/MS of bound proteins; type: binding, human; details: 4:1 w/w CSF protein:fibril
Method: as §1, with “Samples with fibril material (20 μg), plasma (500 μg) or CSF (40 μg) proteins were prepared in 200 μL PBS buffer with 5 mM EDTA.” left out
as §2, §3, §4, §5, §6, §7

Ab2 fibrils [8] = tested on: T2, Ab2 fibrils; assay: as above; type: binding, human; parameters: key to Identification status of CSF protein bound: Ab2: *: Identified, but not quantified; —: Not identified in any of the samples; details: for Relative composition of CSF proteins bound: Ab2: 4:1 w/w CSF protein:fibril
Method: as §1, with “Samples with fibril material (20 μg), plasma (500 μg) or CSF (40 μg) proteins were prepared in 200 μL PBS buffer with 5 mM EDTA.” left out
as §2, §3, §4, §5, §6, §7

glucagon fibrils [9] = biological target: T3, glucagon fibrils; assay: as above; type: binding; details: 4:1 w/w CSF protein:fibril
Method: as §1, with “Samples with fibril material (20 μg), plasma (500 μg) or CSF (40 μg) proteins were prepared in 200 μL PBS buffer with 5 mM EDTA.” left out
as §2, §3, §4, §5, §6, §7

C-36 fibrils [10] = biological target: T4, C-36 fibrils; assay: as above; type: binding; parameters: key to Identification status of CSF protein bound: C-36: *: Identified, but not quantified; —: Not identified in any of the samples; details: for Relative composition of CSF proteins bound: C-36: 4:1 w/w CSF protein:fibril
Method: as §1, with “Samples with fibril material (20 μg), plasma (500 μg) or CSF (40 μg) proteins were prepared in 200 μL PBS buffer with 5 mM EDTA.” left out
as §2, §3, §4, §5, §6, §7

αSN fibrils [11] = biological target: T5, αSN fibrils; assay: as above; type: binding; parameters: key to Identification status of CSF protein bound: αSN: *: Identified, but not quantified; —: Not identified in any of the samples; details: for Identification status of CSF protein bound: αSN: symbol cells
Method: as §1, with “Samples with fibril material (20 μg), plasma (500 μg) or CSF (40 μg) proteins were prepared in 200 μL PBS buffer with 5 mM EDTA.” left out
as §2, §3, §4, §5, §6, §7

FAS4-AD aggregates [12] = tested on: T6, FAS4-AD aggregates; assay: as above; type: binding, human; parameters: key to Identification status of CSF protein bound: FAS4-AD: *: Identified, but not quantified; —: Not identified in any of the samples; details: symbol cells
Method: as §1, with “Samples with fibril material (20 μg), plasma (500 μg) or CSF (40 μg) proteins were prepared in 200 μL PBS buffer with 5 mM EDTA.” left out
as §2, §3, §4, §5, §6, §7

T4 sequence (P01009 383-418 limits assumed): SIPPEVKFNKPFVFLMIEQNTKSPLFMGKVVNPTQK
T3 sequence (P01275 53-81 limits assumed): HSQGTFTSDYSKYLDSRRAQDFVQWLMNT

Row | Substance | Relative composition of plasma proteins bound: Ab1 (Ab1 fibrils [1]) | Relative composition of plasma proteins bound: Ab2 (Ab2 fibrils [2]) | Relative composition of plasma proteins bound: Glucagon (glucagon fibrils [3]) | Relative composition of plasma proteins bound: C-36 (C-36 fibrils [4]) | Identification status of plasma protein bound: αSN (αSN fibrils [5]) | Identification status of plasma protein bound: FAS4-AD (FAS4-AD aggregates [6]) | Relative composition of CSF proteins bound: Ab1 (Ab1 fibrils [7]) | Identification status of CSF protein bound: Ab2 (Ab2 fibrils [8]; symbol cells) | Relative composition of CSF proteins bound: Glucagon (glucagon fibrils [9]) | Relative composition of CSF proteins bound: C-36 (C-36 fibrils [10]) | Identification status of CSF protein bound: αSN (αSN fibrils [11]) | Identification status of CSF protein bound: FAS4-AD (FAS4-AD aggregates [12]) | Relative composition of CSF proteins bound: Ab2 (Ab2 fibrils [8]) | Identification status of CSF protein bound: C-36 (C-36 fibrils [10]; symbol cells) | Relative composition of plasma proteins bound: αSN (αSN fibrils [5]; 50:1 w/w plasma protein:fibril) | Relative composition of plasma proteins bound: FAS4-AD (FAS4-AD aggregates [6]; 50:1 w/w plasma protein:fibril) | Relative composition of CSF proteins bound: αSN (αSN fibrils [11]; 4:1 w/w CSF protein:fibril)
1 | Complement C1s subcomponent: plasma/CSF protein bound to fibrils | 0.3 ± 0.0 % of total protein | 0.7 ± 0.1 % of total protein | 0.2 ± 0.0 % of total protein | 0.4 ± 0.1 % of total protein | * | — | 0.2 ± 0.0 % of total protein | * | 0.2 ± 0.0 % of total protein | 0.7 ± 0.2 % of total protein | — | — |  |  |  |  | 
2 | Complement C3: plasma/CSF protein bound to fibrils | 0.4 ± 0.0 % of total protein | 0.6 ± 0.1 % of total protein | 2.3 ± 0.2 % of total protein | 0.2 ± 0.0 % of total protein | * | * | 0.3 ± 0.1 % of total protein |  | 0.8 ± 0.2 % of total protein |  | — | — | 0.3 ± 0.1 % of total protein | * |  |  | 
3 | Ig γ-1 chain C region: plasma/CSF protein bound to fibrils | 1.1 ± 0.1 % of total protein | 1.2 ± 0.1 % of total protein | 1.2 ± 0.2 % of total protein | 1.9 ± 0.2 % of total protein |  |  | 2.5 ± 0.1 % of total protein |  | 1.4 ± 0.5 % of total protein | 1.4 ± 0.2 % of total protein |  | * | 3.1 ± 0.3 % of total protein |  | 1.9 ± 0.9 % of total protein | 9.5 ± 2.6 % of total protein | 4.2 ± 0.4 % of total protein
